Assay results from ChEMBL document CHEMBL2429735, “Preparation of imidazoles as potent calcitonin gene-related peptide (CGRP) antagonists” (Bioorg Med Chem Lett, 2013).

Assays:
[1] = target: Calcitonin gene-related peptide type 1 receptor (Homo sapiens, UniProt O60894+Q16602); assay: Antagonist activity at human CGRP receptor expressed in human SK-N-MC cells assessed as inhibition of CGRP-stimulated cAMP production; format: functional, cell-based
[2] = Permeability of the compound by PAMPA method at pH 7.4; format: ADME; conditions: read-out: permeability
[3] = test system: Liver microsomes; assay: Metabolic stability in rat liver microsomes assessed as compound remaining; format: ADME, Microsome
[4] = test system: Liver; assay: Metabolic stability in mouse liver microsomes assessed as compound remaining; format: ADME, Microsome
[5] = test system: Liver microsomes; assay: Metabolic stability in human liver microsomes assessed as compound remaining; format: ADME, Microsome

Sequence of Calcitonin gene-related peptide type 1 receptor (Q16602 whole entry, one chain of several): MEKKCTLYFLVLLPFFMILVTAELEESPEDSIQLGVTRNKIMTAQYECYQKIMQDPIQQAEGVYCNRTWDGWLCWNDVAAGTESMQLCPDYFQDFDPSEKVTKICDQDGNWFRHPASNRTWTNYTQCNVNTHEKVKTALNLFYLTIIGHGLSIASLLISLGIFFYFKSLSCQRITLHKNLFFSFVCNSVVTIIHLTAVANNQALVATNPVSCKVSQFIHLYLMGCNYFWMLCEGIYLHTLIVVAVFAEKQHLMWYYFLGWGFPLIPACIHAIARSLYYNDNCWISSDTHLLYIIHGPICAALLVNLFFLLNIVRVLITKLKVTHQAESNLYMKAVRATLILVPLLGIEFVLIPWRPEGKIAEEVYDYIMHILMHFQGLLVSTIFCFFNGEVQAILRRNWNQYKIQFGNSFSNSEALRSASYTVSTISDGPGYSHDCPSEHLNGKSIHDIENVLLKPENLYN

Row | IC50 [1] [nM] | Papp [2] [×10⁻⁶ cm/s] | Stability [3] [%] | Stability [4] [%] | Stability [5] [%] | SMILES
1 | 0.078 | 3.8 | 2 | 0 | 2 | Cc1cc(Cn2ccnc2C(Cc2cc(C)c3[nH]ncc3c2)NC(=O)N2CCC(N3Cc4ccccc4NC3=O)CC2)cc(Cl)n1 (racemic)
2 | 0.83 | – | – | – | – | Cc1cc(CC(NC(=O)N2CCC(N3Cc4ccccc4NC3=O)CC2)c2nccn2Cc2ccncc2)cc2cn[nH]c12 (racemic)
3 | 0.13 | – | 2 | 1 | 1 | Cc1cc(Cn2ccnc2C(Cc2cc(C)c3[nH]ncc3c2)NC(=O)N2CCC(N3Cc4ccccc4NC3=O)CC2)ccn1 (racemic)
4 | 0.42 | – | 20 | 2 | 4 | Cc1cc(CC(NC(=O)N2CCC(N3Cc4ccccc4NC3=O)CC2)c2nccn2Cc2cccnc2)cc2cn[nH]c12 (racemic)
5 | 0.37 | – | 87 | 85 | 100 | Cc1cc(CC(NC(=O)N2CCC(N3Cc4ccccc4NC3=O)CC2)c2ncc(C)n2Cc2cccc(F)c2)cc2cn[nH]c12 (racemic)
6 | 0.39 | – | 100 | 93 | 100 | Cc1cc(CC(NC(=O)N2CCC(N3Cc4ccccc4NC3=O)CC2)c2nc(Br)cn2Cc2cc(F)cc(F)c2)cc2cn[nH]c12 (racemic)
7 | 0.39 | – | 78 | 66 | 84 | Cc1cc(CC(NC(=O)N2CCC(N3Cc4ccccc4NC3=O)CC2)c2nccn2Cc2cc(F)cc(F)c2)cc2cn[nH]c12 (racemic)
8 | 0.63 | – | – | – | – | Cc1cc(CC(NC(=O)N2CCC(N3Cc4ccccc4NC3=O)CC2)c2nccn2Cc2cccc(F)c2)cc2cn[nH]c12 (racemic)
9 | 0.98 | – | – | – | – | Cc1cc(CC(NC(=O)N2CCC(N3Cc4ccccc4NC3=O)CC2)c2nccn2Cc2ccc(F)cc2)cc2cn[nH]c12 (racemic)
10 | 1.9 | – | – | – | – | Cc1cc(CC(NC(=O)N2CCC(N3Cc4ccccc4NC3=O)CC2)c2nccn2Cc2ccccc2F)cc2cn[nH]c12 (racemic)
11 | 0.77 | – | – | – | – | Cc1cc(CC(NC(=O)N2CCC(N3Cc4ccccc4NC3=O)CC2)c2nccn2Cc2ccccc2)cc2cn[nH]c12 (racemic)

Second part, the molecule before the results:

Row | SMILES | IC50 [1] [nM] | Papp [2] [×10⁻⁶ cm/s] | Stability [3] [%] | Stability [4] [%] | Stability [5] [%]
12 | Cc1cc(C[C@@H](NC(=O)N2CCC(N3Cc4cccc(F)c4NC3=O)CC2)C(=O)N2CCC(N3CCCCC3)CC2)cc2cn[nH]c12 | 0.026 | 1.1 | – | – | –
13 | Cc1cc(CC(OC(=O)N2CCC(c3cc4ccccc4[nH]c3=O)CC2)c2ncc3n2CCNC3)cc2cn[nH]c12 (racemic) | 2.9 | – | – | – | –
14 | Cc1cc(CC(OC(=O)N2CCC(c3cc4ccccc4[nH]c3=O)CC2)c2ncc3n2CCN(Cc2ccccc2)C3)cc2cn[nH]c12 (racemic) | – | – | 32 | 9 | 41
15 | Cc1cc(CC(OC(=O)N2CCC(c3cc4ccccc4[nH]c3=O)CC2)c2ncc3n2CCN(C2CCCCC2)C3)cc2cn[nH]c12 (racemic) | – | – | 30 | 21 | 41
16 | Cc1cc(CC(NC(=O)N2CCC(N3Cc4ccccc4NC3=O)CC2)c2nccn2Cc2ccccn2)cc2cn[nH]c12 (racemic) | 1.6 | – | 1 | 0 | 1
17 | Cc1cc(CC(NC(=O)N2CCC(N3Cc4ccccc4NC3=O)CC2)c2nc(Br)c(Br)[nH]2)cc2cn[nH]c12 (racemic) | 4.8 | – | – | – | –
18 | Cc1cc(CC(NC(=O)N2CCC(N3Cc4ccccc4NC3=O)CC2)c2ncc(Br)[nH]2)cc2cn[nH]c12 (racemic) | 7.4 | – | – | – | –
19 | Cc1c[nH]c(C(Cc2cc(C)c3[nH]ncc3c2)NC(=O)N2CCC(N3Cc4ccccc4NC3=O)CC2)n1 (racemic) | 120 | – | – | – | –
20 | Cc1cc(CC(NC(=O)N2CCC(N3Cc4ccccc4NC3=O)CC2)c2nccn2Cc2ccc(C(C)(C)C)cc2)cc2cn[nH]c12 (racemic) | 0.19 | – | – | – | –
21 | Cc1cc(CC(NC(=O)N2CCC(N3Cc4ccccc4NC3=O)CC2)c2nccn2CCc2ccccc2)cc2cn[nH]c12 (racemic) | 0.88 | – | – | – | –
22 | Cc1cc(CC(NC(=O)N2CCC(N3Cc4ccccc4NC3=O)CC2)c2ncc[nH]2)cc2cn[nH]c12 (racemic) | 97 | – | – | – | –
23 | Cc1cc(CC(NC(=O)N2CCC(N3Cc4ccccc4NC3=O)CC2)c2nccn2C)cc2cn[nH]c12 (racemic) | 4.8 | – | – | – | –
